Experimental data from patent US10450270B2, “Glyoxamide substituted pyrrolamide derivatives and the use thereof as medicaments for the treatment of hepatitis B” (Janssen Sciences Ireland UC, priority 2013, dated 2019).
pEC50: −log10 of the molar value.

Experiments:
[1] = tested on: HBV; experiment: Anti-HBV activity, HepG2.117 inducible HBV producing cell line (Tet-off), intracellular HBV DNA by realtime PCR; format: cell-based; conditions: Hepatitis B virus, 72 h; HepG2.117 cells, 3 days of treatment, intracellular HBV DNA; read-out: HepG2 117 EC50
[2] = Cytotoxicity in HepG2 cells, Resazurin viability assay; conditions: human, HepG2 cells

| Structure (SMILES) | pEC50 [1] | CC50 at 4 days [2] |
| --- | --- | --- |
| Cc1c(C(=O)C(=O)N[C@H]2[C@H](C)CC[C@H]2O)cc(C(=O)Nc2ccc(F)c(C#N)c2)n1C [Compound 66, N-(3-cyano-4-fluoro-phenyl)-4-[2-[[(1S,2R,5R)-2-hydroxy-5-methyl-cyclopentyl]amino]-2-oxo-acetyl]-1,5-dimethyl-pyrrole-2-carboxamide] | 6.96 | > 25000 nM |
| Cc1c(C(=O)C(=O)NC(C)(C)C)cc(C(=O)Nc2ccc(F)c(C#N)c2)n1C [Compound 59, 4-[2-(tert-butylamino)-2-oxo-acetyl]-N-(3-cyano-4-fluoro-phenyl)-1,5-dimethyl-pyrrole-2-carboxamide] | 8.40 | > 25000 nM |
| C[C@@H](NC(=O)C(=O)c1cc(C(=O)Nc2ccc(F)c(C#N)c2)n(C)c1Br)C(F)(F)F [Compound 25, 5-bromo-N-(3-cyano-4-fluoro-phenyl)-1-methyl-4-[2-oxo-2-[[(1R)-2,2,2-trifluoro-1-methyl-ethyl]amino]acetyl]pyrrole-2-carboxamide] | < 6.00 | > 25000 nM |
| Cn1c(Br)c(C(=O)C(=O)NC(C)(C)C)c(Cl)c1C(=O)Nc1ccc(F)c(C#N)c1 [Compound 50, 5-bromo-4-[2-(tert-butylamino)-2-oxo-acetyl]-3-chloro-N-(3-cyano-4-fluoro-phenyl)-1-methyl-pyrrole-2-carboxamide] | 8.40 | > 25000 nM |
| Cc1c(C(=O)C(=O)N[C@@H](C)C(C)(F)F)cc(C(=O)Nc2ccc(F)c(C#N)c2)n1C [Compound 55, N-(3-cyano-4-fluoro-phenyl)-4-[2-[[(1S)-2,2-difluoro-1-methyl-propyl]-amino]-2-oxo-acetyl]-1,5-dimethyl-pyrrole-2-carboxamide] | 8.05 | > 25000 nM |
| Cn1cc(C(=O)C(=O)NC(C)(C)C)c(F)c1C(=O)Nc1ccc(F)c(C#N)c1 [Compound 34, 4-[2-(tert-butylamino)-2-oxo-acetyl]-N-(3-cyano-4-fluoro-phenyl)-3-fluoro-1-methyl-pyrrole-2-carboxamide] | 8.05 | > 25000 nM |
| Cc1c(C(=O)C(=O)NC(C)(C)C)c(F)c(C(=O)Nc2ccc(F)c(C#N)c2)n1C [Compound 36, 4-[2-(tert-butylamino)-2-oxo-acetyl]-N-(3-cyano-4-fluoro-phenyl)-3-fluoro-1,5-dimethyl-pyrrole-2-carboxamide] | > 8.40 | > 25000 nM |
| CCC(C)(CO)NC(=O)C(=O)c1cc(C(=O)Nc2ccc(F)c(C#N)c2)n(C)c1C (centres unmarked) [Compound 76, N-(3-cyano-4-fluoro-phenyl)-4-[2-[[1-(hydroxymethyl)-1-methyl-propyl]-amino]-2-oxo-acetyl]-1,5-dimethyl-pyrrole-2-carboxamide] | 7.89 | > 25000 nM |
| COCC(C)(C)NC(=O)C(=O)c1cc(C(=O)Nc2ccc(F)c(C#N)c2)n(C)c1C [Compound 79, N-(3-cyano-4-fluoro-phenyl)-4-[2-[(2-methoxy-1,1-dimethyl-ethyl)amino]-2-oxo-acetyl]-1,5-dimethyl-pyrrole-2-carboxamide] | 8.10 | > 25000 nM |
| C[C@H](NC(=O)C(=O)c1cc(C(=O)Nc2ccc(F)c(C#N)c2)n(C)c1)C(F)(F)F [Compound 51, N-(3-cyano-4-fluoro-phenyl)-1-methyl-4-[2-oxo-2-[[(1S)-2,2,2-trifluoro-1-methyl-ethyl]amino]acetyl]pyrrole-2-carboxamide] | 7.38 | > 25000 nM |
| Cc1c(C(=O)C(=O)NC(C)(CO)C2CC2)cc(C(=O)Nc2ccc(F)c(C#N)c2)n1C (centres unmarked) [Compound 77, N-(3-cyano-4-fluoro-phenyl)-4-[2-[(1-cyclopropyl-2-hydroxy-1-methyl-ethyl)amino]-2-oxo-acetyl]-1,5-dimethyl-pyrrole-2-carboxamide] | 7.92 | > 25000 nM |
| Cn1cc(C(=O)C(=O)NC2(C(F)(F)F)CCC2)c(F)c1C(=O)Nc1ccc(F)c(C#N)c1 [Compound 84, N-(3-cyano-4-fluoro-phenyl)-3-fluoro-1-methyl-4-[2-oxo-2-[[1-(trifluoro-methyl)cyclobutyl]amino]acetyl]pyrrole-2-carboxamide] | 8.52 | 21900 nM |
| Cc1c(C(=O)C(=O)NC2(C(F)(F)F)CCOC2)c(Cl)c(C(=O)Nc2ccc(F)c(C#N)c2)n1C (racemic) [Compound 41, 3-chloro-N-(3-cyano-4-fluoro-phenyl)-1,5-dimethyl-4-[2-oxo-2-[[3-(tri-fluoromethyl)tetrahydrofuran-3-yl]amino]acetyl]pyrrole-2-carboxamide] | 8.52 | > 25000 nM |
| Cn1cc(C(=O)C(=O)NC2(C)CC(F)(F)C2)c(Cl)c1C(=O)Nc1ccc(F)c(C#N)c1 [Compound 40, 3-chloro-N-(3-cyano-4-fluoro-phenyl)-4-[2-[(3,3-difluoro-1-methyl-cyclobutyl)amino]-2-oxo-acetyl]-1-methyl-pyrrole-2-carboxamide] | 8.15 | > 25000 nM |
| Cc1c(C(=O)C(=O)NC2(C)CCCOC2)cc(C(=O)Nc2ccc(F)c(C#N)c2)n1C (centres unmarked) [Compound 78, N-(3-cyano-4-fluoro-phenyl)-1,5-dimethyl-4-[2-[(3-methyltetrahydropyran-3-yl)amino]-2-oxo-acetyl]pyrrole-2-carboxamide] | 8.10 | > 25000 nM |
| Cn1cc(C(=O)C(=O)NC2(C)CC(F)(F)C2)c(F)c1C(=O)Nc1ccc(F)c(C#N)c1 [Compound 35, N-(3-cyano-4-fluoro-phenyl)-4-[2-[(3,3-difluoro-1-methyl-cyclobutyl)-amino]-2-oxo-acetyl]-3-fluoro-1-methyl-pyrrole-2-carboxamide] | 8.40 | > 25000 nM |
| Cc1c(C(=O)C(=O)NC(CCO)C2CC2)cc(C(=O)Nc2ccc(F)c(C#N)c2)n1C (centres unmarked) [Compound 74, N-(3-cyano-4-fluoro-phenyl)-4-[2-[(1-cyclopropyl-3-hydroxy-propyl)-amino]-2-oxo-acetyl]-1,5-dimethyl-pyrrole-2-carboxamide] | 7.82 | > 25000 nM |
| COCC(C)(C)NC(=O)C(=O)c1cn(C)c(C(=O)Nc2ccc(F)c(C#N)c2)c1F [Compound 96, N-(3-cyano-4-fluoro-phenyl)-3-fluoro-4-[2-[(2-methoxy-1,1-dimethyl-ethyl)amino]-2-oxo-acetyl]-1-methyl-pyrrole-2-carboxamide] | 8.22 | > 25000 nM |
| CC[C@@H](NC(=O)C(=O)c1cn(C)c(C(=O)Nc2ccc(F)c(C#N)c2)c1Cl)C(F)(F)F [Compound 38, 3-chloro-N-(3-cyano-4-fluoro-phenyl)-1-methyl-4-[2-oxo-2-[[(1R)-1-(trifluoromethyl)propyl]amino]acetyl]pyrrole-2-carboxamide] | 7.82 | > 25000 nM |
| Cn1c(C(=O)Nc2ccc(F)c(C#N)c2)c(Cl)c(C(=O)C(=O)NC(C)(C)C)c1C(F)(F)F [Compound 33, 4-[2-(tert-butylamino)-2-oxo-acetyl]-3-chloro-N-(3-cyano-4-fluoro-phenyl)-1-methyl-5-(trifluoromethyl)pyrrole-2-carboxamide] | 6.61 | > 25000 nM |
| Cc1c(C(=O)C(=O)NC2(C(F)(F)F)CC2)cc(C(=O)Nc2ccc(F)c(C#N)c2)n1C [Compound 57, N-(3-cyano-4-fluoro-phenyl)-1,5-dimethyl-4-[2-oxo-2-[[1-(trifluoromethyl)-cyclopropyl]amino]acetyl]pyrrole-2-carboxamide] | 8.22 | > 25000 nM |
| C[C@H](CO)NC(=O)C(=O)c1cn(C)c(C(=O)Nc2ccc(F)c(C#N)c2)c1F [Compound 95, N-(3-cyano-4-fluoro-phenyl)-3-fluoro-4-[2-[[(1R)-2-hydroxy-1-methyl-ethyl]amino]-2-oxo-acetyl]-1-methyl-pyrrole-2-carboxamide] | 7.19 | > 25000 nM |
| Cc1c(C(=O)C(=O)N[C@H](CO)C(C)C)cc(C(=O)Nc2ccc(F)c(C#N)c2)n1C [Compound 68, N-(3-cyano-4-fluoro-phenyl)-4-[2-[[(1S)-1-(hydroxymethyl)-2-methyl-propyl]amino]-2-oxo-acetyl]-1,5-dimethyl-pyrrole-2-carboxamide] | 7.11 | > 25000 nM |
| Cc1c(C(=O)C(=O)N[C@H]2CCCC[C@@H]2O)cc(C(=O)Nc2ccc(F)c(C#N)c2)n1C [Compound 67, N-(3-cyano-4-fluoro-phenyl)-4-[2-[[(1S,2S)-2-hydroxycyclohexyl]amino]-2-oxo-acetyl]-1,5-dimethyl-pyrrole-2-carboxamide] | 7.03 | > 25000 nM |
| Cn1cc(C(=O)C(=O)NC2(C(F)(F)F)CCC2)c(Cl)c1C(=O)Nc1ccc(F)c(C#N)c1 [Compound 39, 3-chloro-N-(3-cyano-4-fluoro-phenyl)-1-methyl-4-[2-oxo-2-[[1-(tri-fluoromethyl)cyclobutyl]amino]acetyl]pyrrole-2-carboxamide] | 8.22 | > 25000 nM |
| Cc1c(C(=O)C(=O)NC(C)(C)CO)cc(C(=O)Nc2ccc(F)c(C#N)c2)n1C [Compound 94, N-(3-cyano-4-fluoro-phenyl)-4-[2-[(2-hydroxy-1,1-dimethyl-ethyl)amino]-2-oxo-acetyl]-1,5-dimethyl-pyrrole-2-carboxamide] | 8.40 | > 25000 nM |
| CC[C@H](C)[C@@H](CO)NC(=O)C(=O)c1cc(C(=O)Nc2ccc(F)c(C#N)c2)n(C)c1C [Compound 69, N-(3-cyano-4-fluoro-phenyl)-4-[2-[[(1S,2S)-1-(hydroxymethyl)-2-methyl-butyl]amino]-2-oxo-acetyl]-1,5-dimethyl-pyrrole-2-carboxamide] | 7.31 | > 25000 nM |
| Cc1c(C(=O)C(=O)NC2(CO)CC2)cc(C(=O)Nc2ccc(F)c(C#N)c2)n1C [Compound 73, N-(3-cyano-4-fluoro-phenyl)-4-[2-[[1-(hydroxymethyl)cyclopropyl]amino]-2-oxo-acetyl]-1,5-dimethyl-pyrrole-2-carboxamide] | 7.77 | > 25000 nM |
